The text below walks through data of publication PMC2705655, “The Nicotinic Acetylcholine Receptors of the Parasitic Nematode Ascaris suum: Formation of Two Distinct Drug Targets by Varying the Relative Expression Levels of Two Subunits” (PLoS Pathogens, 2009).

What all share (assay): two-electrode voltage clamp, Xenopus oocytes
Type in all cases: cell-based

Assay [1] has as its target T1, 5:1 Asu-unc-38:Asu-unc-29 receptor, putative (Asu-UNC-38)3(Asu-UNC-29)2, N-subtype nAChR (Ascaris suum, UniProt A7UFK6+A9XWS2).
T1 construct: full-length cDNAs of both subunits in pT7TS, cRNAs co-injected 5:1 into Xenopus oocytes; no tag
T1 sequence (A7UFK6 22-513): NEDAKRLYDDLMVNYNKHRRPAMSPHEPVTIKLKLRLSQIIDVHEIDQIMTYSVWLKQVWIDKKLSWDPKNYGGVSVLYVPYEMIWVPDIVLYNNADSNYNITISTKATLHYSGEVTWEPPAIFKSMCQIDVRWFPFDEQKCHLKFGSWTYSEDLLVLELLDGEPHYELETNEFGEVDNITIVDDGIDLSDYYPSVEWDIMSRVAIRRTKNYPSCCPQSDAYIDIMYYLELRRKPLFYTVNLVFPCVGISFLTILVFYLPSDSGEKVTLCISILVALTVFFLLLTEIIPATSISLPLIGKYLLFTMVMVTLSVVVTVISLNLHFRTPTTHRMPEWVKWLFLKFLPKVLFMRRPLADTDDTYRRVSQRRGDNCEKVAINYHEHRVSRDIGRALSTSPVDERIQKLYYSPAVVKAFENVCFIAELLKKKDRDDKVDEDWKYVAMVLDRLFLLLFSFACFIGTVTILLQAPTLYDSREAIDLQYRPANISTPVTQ
T1 sequence (A9XWS2 27-513): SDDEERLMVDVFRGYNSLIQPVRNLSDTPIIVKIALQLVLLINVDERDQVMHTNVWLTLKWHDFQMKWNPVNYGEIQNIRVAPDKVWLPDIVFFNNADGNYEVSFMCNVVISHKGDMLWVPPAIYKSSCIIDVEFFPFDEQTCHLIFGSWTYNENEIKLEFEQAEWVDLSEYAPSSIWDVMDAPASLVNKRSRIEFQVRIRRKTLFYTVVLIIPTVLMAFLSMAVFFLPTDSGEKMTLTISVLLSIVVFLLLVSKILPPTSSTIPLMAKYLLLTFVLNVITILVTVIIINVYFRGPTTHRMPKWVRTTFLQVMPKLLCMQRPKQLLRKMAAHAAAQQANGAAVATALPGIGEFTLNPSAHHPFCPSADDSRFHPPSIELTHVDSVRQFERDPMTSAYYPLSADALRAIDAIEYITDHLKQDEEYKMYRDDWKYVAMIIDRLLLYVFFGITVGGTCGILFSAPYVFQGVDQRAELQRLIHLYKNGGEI
From the text: two-electrode voltage clamp, Xenopus oocytes on 5:1 Asu-unc-38:Asu-unc-29 receptor, putative (Asu-UNC-38)3(Asu-UNC-29)2, N-subtype nAChR

Assay [2] addresses T2, 1:5 Asu-unc-38:Asu-unc-29 receptor, putative (Asu-UNC-38)2(Asu-UNC-29)3, L-subtype nAChR (Ascaris suum, UniProt A7UFK6+A9XWS2).
T2 construct: full-length cDNAs of both subunits in pT7TS, cRNAs co-injected 1:5 into Xenopus oocytes; no tag
T2 sequence (A7UFK6 22-513): T1 sequence (A7UFK6 22-513)
T2 sequence (A9XWS2 27-513): T1 sequence (A9XWS2 27-513)
Conditions: -60 mV; cRNA ratio 1:5; response too small to quantify.

Assay [3] concerns the target T1, 5:1 Asu-unc-38:Asu-unc-29 receptor, putative (Asu-UNC-38)3(Asu-UNC-29)2, N-subtype nAChR. Conditions: -60 mV; cRNA ratio 5:1; response too small to quantify.
Assay [4] has as its target T2, 1:5 Asu-unc-38:Asu-unc-29 receptor, putative (Asu-UNC-38)2(Asu-UNC-29)3, L-subtype nAChR. From the text: two-electrode voltage clamp, Xenopus oocytes on 1:5 Asu-unc-38:Asu-unc-29 receptor, putative (Asu-UNC-38)2(Asu-UNC-29)3, L-subtype nAChR

`CN1CCCN=C1/C=C/c1cccc(O)c1` [oxantel]: the midpoint of the response in assay [1], the EC50, lay at 4070 nM. In assay [2], the “two-electrode voltage clamp, Xenopus oocytes” value is listed as “but gave a negligible response to oxantel”.
As to `CN1CCCN=C1/C=C/c1cccs1` [pyrantel], in assay [3], the “two-electrode voltage clamp, Xenopus oocytes” value is on record as “but gave very little response to pyrantel”. In addition, in assay [4], the concentration for a half-maximal effect (EC50) was 398 nM.
